# Data published in patent US20090162280A1, “DETECTING SOLUBLE A-BETA” (GENERAL ELECTRIC COMPANY, priority 2007, published 2009).
# Key:
# [1] = biological target: T1, soluble A-beta oligomers (beta-amyloid 1-42 oligomer, 20% biotin) (Homo sapiens, UniProt P05067); assay: SPA competition binding against tritium labeled 49b on soluble A-beta oligomers; conditions: for IC50: 130 nM 3H-49b, unlabeled competitor; for % inhibition: 50 uM unlabeled competitor, 130 nM tritium labeled-49b
# T1 construct: 1 mg of human beta-amyloid 1-42 (H-1368, Bachem); purchased Bachem H-1368 (unlabelled), H-5642 (biotinylated)
# Protocol: A. Soluble A-beta. 1 mg of human beta-amyloid 1-42 (H-1368, Bachem) and 500 uL of 1,1,1,3,3,3 hexafluoro-2-propanol (HFIP) (Aldrich) were chilled in separate bottles on ice for 30 minutes. Cold beta-amyloid 1-42 was solubilized with cold HFIP. The mixture was incubated for 1 hr at room temperature until it turned clear. The resulting solution was then dried to a film under vacuum. The film was dissolved again in cold HFIP and incubated another 1 hr at room temperature. The resulting solution was separated into aliquots in several microcentrifuge tubes. HFIP was removed under vacuum, and the films were stored at −20° C. until use. To prepare soluble oligomer, the film was dissolved in appropriate amount of dry DMSO (Sigma), and Ham's F12 media (Biosource) or PBS (Sigma, D8537) was added and incubated at 4° C. for 24 hours (final concentration of 200 uM or 0.9 mg/mL beta-amyloid in 2% DMSO). The tube containing the soluble oligomers was centrifuged at 13,000 rpm for 5 minutes, and its supernatant was transferred to a clean tube.
# The three compounds shown in Table 1 were synthesized and evaluated for their ability to bind to soluble A-beta using the scintillation proximity assays (SPA) and/or AFM as described below. The percent inhibition reported was for 50 uM of the indicated unlabeled competitor and 130 nM of tritium labeled-49b.
# (§1) For SPA and atomic force microscopy experiments, preparations of soluble oligomers and fibrils contained 20% biotinylated beta-amyloid 1-42 and 1-40, respectively (H-5642, H-5914, Bachem).
# Lyophilized Streptavidin-Ysi beads (GE Healthcare) were reconstituted to 100 mg/mL in deionized water, and then further diluted in deionized water to give a suspension containing 0.25 mg/10 μL water. Unlabeled 49b, PIB and compound of formula III (353207) were dissolved in DMSO to give a final stock concentration of 15 mM.
# For the saturation-binding assay, isotopic dilution of radiolabeled 49b with unlabeled 49b was performed. ^3H-49b was added to 500 uM of unlabeled 49b to a final concentration of 50 μCi/mL ^3H-49b. The probe solution was then serially diluted in PBS to give six solutions giving 6.6, 13.1, 26.3, 52.5, 105, or 210 uM in the final assay well. Each concentration of the probe solution was incubated with 12 μg beta-amyloid 1-42 oligomer (20% biotin) or 1-40 (20% biotin) fibrils in a total volume of 90 μL. Assays were incubated at room temp for 2 hrs before addition of 10 μL YSi-streptavidin (0.25 mg) SPA bead. Assays were set-up in triplicate in 96-well NBS plates (Costar). Assays were incubated overnight and counted the following morning. […] The specific activities of four probes were different, however the level of activity was the same at the concentrations where the probes were tested. […]
# Aβ 1-40 fibrils = biological target: T2, Aβ 1-40 fibrils (Homo sapiens, UniProt P05067); assay: SPA competition binding against 3H-PIB on A-beta fibrils; conditions: ~30 nM [3H]PIB, 10 μg Aβ 1-40 fibrils, unlabeled competitor
# T2 construct: Lyophilized human beta-amyloid 1-40 peptide (Catalog number H-1194, Bachem); purchased Bachem H-1194 (unlabelled), H-5914 (biotinylated)
# Protocol: For the ^3H-PIB binding reaction, 10 μg Aβ 1-40 fibrils were incubated with ˜30 nM [^3H]PIB in the presence of the unlabeled competitors in a total volume of 90 μl PBS. […] Non-specific binding wells contained PBS instead of fibril/oligomer. Assays were incubated at room temperature for 2 hr before addition of 10 μl YSi-streptavidin bead (0.13 mg). Assays were shaken for 1 min and then incubated overnight before counting the following morning using Microbeta.
# (§2) Data analyses were performed using Sigma Plot or GraphPad Prism® version 4. Curves were fitted using non-linear regression. KD values and IC50 values were estimated from the binding curves.
# 1-42 fibrils = 1-42 fibrils (Homo sapiens, UniProt P05067); assay: SPA binding of 3H-49b to 1-42 fibrils; conditions: same conditions used to measure binding to soluble oligomers
# [2] = biological target: T3, beta-amyloid 1-40 fibrils (20% biotin) (Homo sapiens, UniProt P05067); assay: SPA saturation binding of 3H-49b to 1-40 fibrils; conditions: same conditions as for soluble oligomers; compared with oligomers
# T3 construct: Lyophilized human beta-amyloid 1-40 peptide (Catalog number H-1194, Bachem); purchased Bachem H-1194 (unlabelled), H-5914 (biotinylated)
# Protocol: B. Insoluble A-beta (1-40) fibril formation: Lyophilized human beta-amyloid 1-40 peptide (Catalog number H-1194, Bachem) was solubilized with HFIP to produce a dry clear film following the process described above for beta-amyloid 1-42. The clear film of beta-amyloid 1-40 was diluted with 10 mM phosphate buffer, pH 7.4, containing 1 mM EDTA, such that final Aβ concentration was 0.5 mg/ml, then mixed briefly. The solution was incubated at 37° C. on an orbital shaker set at 200 rpm for 48 h. A cloudy solution was produced, and the fibril production was confirmed by measuring changes in fluorescence of Thioflavin T, as well as by atomic force microscopy and transmission electron microscopy. Fibrils were used immediately after their production was confirmed.
# as §1
# For the saturation-binding assay, isotopic dilution of radiolabeled 49b with unlabeled 49b was performed. ^3H-49b was added to 500 uM of unlabeled 49b to a final concentration of 50 μCi/mL ^3H-49b. The probe solution was then serially diluted in PBS to give six solutions giving 6.6, 13.1, 26.3, 52.5, 105, or 210 uM in the final assay well. […] Assays were incubated overnight and counted the following morning. […]
# [3] = biological target: T1, soluble A-beta oligomers (beta-amyloid 1-42 oligomer, 20% biotin); assay: SPA saturation / direct binding of tritium labeled probes to soluble A-beta oligomers
# Protocol: For the saturation-binding assay, isotopic dilution of radiolabeled 49b with unlabeled 49b was performed. ^3H-49b was added to 500 uM of unlabeled 49b to a final concentration of 50 μCi/mL ^3H-49b. The probe solution was then serially diluted in PBS to give six solutions giving 6.6, 13.1, 26.3, 52.5, 105, or 210 uM in the final assay well. Each concentration of the probe solution was incubated with 12 μg beta-amyloid 1-42 oligomer (20% biotin) or 1-40 (20% biotin) fibrils in a total volume of 90 μL. Assays were incubated at room temp for 2 hrs before addition of 10 μL YSi-streptavidin (0.25 mg) SPA bead. Assays were set-up in triplicate in 96-well NBS plates (Costar). Assays were incubated overnight and counted the following morning. […] Assay conditions were the same as described in saturation binding assay.
# as §2
# A direct binding assay using tritium labeled 49b was performed against oligomers or fibrils by scintillation proximity assay (SPA). Beta-amyloid containing 20% biotin and tritiated 49b were incubated in solution for two hours prior to addition of the Ysi-Streptavidin beads.
# [4] = saturation binding with oligomers
# T1 sequence (P05067 672-713): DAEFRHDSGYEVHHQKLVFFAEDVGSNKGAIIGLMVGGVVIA
# T2 sequence (P05067 672-711): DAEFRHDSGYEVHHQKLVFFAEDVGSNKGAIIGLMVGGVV
# Chain of 1-42 fibrils (P05067 672-713): as the sequence (P05067 672-713) above
# T3 sequence (P05067 672-711): as the sequence (P05067 672-711) above
IC50 [1] [µM],competition of tritium labeled PIB binding to fibrils (in words) (Aβ 1-40 fibrils),binding to 1-40 fibrils [2],"Kd ([3]; 3H-49b isotopically diluted with unlabeled 49b, incubated with oligomers, read-out: binding constant (saturation binding)) [µM]","Bmax [3, 4]","molar ratio probe:beta-amyloid at Bmax [3, 4]",Compound,% inhibition [1] [%],affinity for 1-42 fibrils (1-42 fibrils),"specificity, oligomers over fibrils ([3]; direct binding of 3H-49b, oligomers versus fibrils)"
1 to 7,did not compete,,,,,O=C(Nc1ccc(O)c(C(=O)O)c1)c1ccc(-c2ccc(C(=O)Nc3ccc(O)c(C(=O)O)c3)cc2)cc1 [Formula III],82,,
,,,,,,"CNc1ccc(-c2nc3ccc(O)cc3s2)cc1 [Formula I, 2-(4-methylamino)phenylbenzothiazol-6-ol, reference compound]",3,,
60,not competed,Much less binding was observed,50,60-80 nmol/mg beta-amyloid,1 probe:3-4 beta-amyloid,"O=Cc1ccc(-c2oc3ccccc3c2CO)o1 [Formula II, 2-(2-formyl-5-furanyl)-3-hydroxymethyl benzofuran]",,no measurable affinity could be determined,showed specificity to oligomers over fibrils
